# Measurements from patent US12128028B2, “Heterocyclic sulfonamide derivatives and pharmaceutical uses thereof” (METRION BIOSCIENCES LIMITED, priority 2018, dated 2024).
# pIC50: −log10 of the molar value.
# Target: human Kv1.3 (Homo sapiens (Human), UniProt P22001)
# Test: Kv1.3 potency evaluation, automated patch clamp electrophysiology (QPatch HT) in CHO-Kv1.3 cells
# Type: cell-based
# Conditions: whole-cell QPatch HT, % inhibition of charge, step to +30 mV, four concentrations, N≥3 cells, read-out: hKv1.3 IC50
# From the text: Biological Assays Kv1.3 Potency Evaluation Electrophysiology Recordings
# A proprietary Chinese hamster ovary cell line stably expressing exogenous human a-subunits of Kv1.3 (CHO-Kv1.3) channel, validated biophysically and pharmacologically in house, was used to assess the ability of test compounds to block Kv1.3 currents using automated patch clamp electrophysiology. The QPatch HT system (Sophion Bioscience A/S, Denmark) was used with the conventional whole-cell configuration. This system is an automated, chip-based planar patch clamp device allowing for up to 48 parallel independent experiments in one experimental assay run. Cells are added to each well and drawn by suction onto a small aperture to obtain a Gigaohm seal between the cell membrane and treated silicon surface, and whole-cell recordings initiated after access is achieved by suction and/or voltage pulses. The QPatch HT uses static perfusion, whereby a small volume of recording solution or drug is added to a reservoir on the chip and the solution perfuses across the cell through quartz-lined microfluidic channels; this solution is removed by capillary action when the next sample application is made.
# CHO-Kv1.3 cells were prepared for experiments by dissociation from T175 cell culture flasks using trypsin-EDTA (0.05%), cells were kept in serum free media in the cell hotel on board the QPatch HT. These cells were sampled, washed and re-suspended in extracellular recording solution by the QPatch HT immediately before application to the recording well site on the chip. Experiments were performed using the following solutions; extracellular solution contained (in mM); 150 NaCl, 10 KCl, 1 MgCl2, 3 CaCl2), 10 Glucose and 10 HEPES (pH 7.4, NaOH) and intracellular solution contained (in mM); 20 KCl, 120 KF, 10 HEPES, 10 EGTA, 5 ATP (pH 7.2, KOH).
# The potency (Inhibitory Concentration 50%, IC50) of synthesized compounds against Kv1.3 was determined from concentration-response relationships established by cumulatively applying four escalating concentrations of test compound to an individual cell and a minimum of N≥3 individual cells of data per compound were used to generate the IC50 value.
# On achieving the whole-cell configuration; two additions of vehicle (0.1-0.3% DMSO v/v) were applied to each cell in two bolus additions with a two minute recording period between each addition (four minutes total recording time). Following the vehicle period, four concentrations of test sample were applied as two bolus additions per test concentration at two minute intervals, and the effects on current measured during the four minute recording period.
# Currents were elicited using a single step voltage protocol. From a holding potential of −80 mV the cell is depolarised to +30 mV (500 ms) resulting in an outward current before finally repolarising the cell by returning to the holding potential. The command voltage was applied at a frequency of 0.067 Hz throughout the duration of the experiment. For each sweep of the voltage protocol membrane current and the passive properties of the individual cells were recorded by QPatch assay software (version 5.2). Cursors were placed to calculate the charge (integral of the current recorded during cursor interval) between 2-490 ms (0.4-99%) of the 500 ms step to +30 mV.
# The % inhibition of charge for each test concentration application period was calculated as the reduction in mean charge at the end of each concentration test period relative to the charge value measured at the end of the control (i.e. vehicle) period. Sigmoidal concentration response curves (four parameter logistic curve) were fitted to the % inhibition rom which the IC50 was determined. Curve fits were constrained at 0 and 100%.
# human Kv1.3, sequence (P22001 whole entry): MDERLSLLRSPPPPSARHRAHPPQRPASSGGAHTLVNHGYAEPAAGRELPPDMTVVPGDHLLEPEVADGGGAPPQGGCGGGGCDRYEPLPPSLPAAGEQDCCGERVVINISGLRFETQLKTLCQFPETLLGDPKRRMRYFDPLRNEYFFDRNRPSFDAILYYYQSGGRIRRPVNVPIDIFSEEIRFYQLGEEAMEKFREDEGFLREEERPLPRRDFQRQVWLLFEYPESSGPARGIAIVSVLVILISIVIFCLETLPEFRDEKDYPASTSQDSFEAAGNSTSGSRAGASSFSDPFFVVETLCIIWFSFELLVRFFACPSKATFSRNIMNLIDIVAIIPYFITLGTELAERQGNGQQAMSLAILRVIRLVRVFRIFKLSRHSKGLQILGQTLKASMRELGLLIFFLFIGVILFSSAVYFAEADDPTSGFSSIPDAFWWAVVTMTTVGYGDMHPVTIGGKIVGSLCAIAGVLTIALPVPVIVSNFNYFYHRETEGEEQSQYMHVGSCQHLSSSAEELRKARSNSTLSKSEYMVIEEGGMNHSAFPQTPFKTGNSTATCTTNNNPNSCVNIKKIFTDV
row,Compound,pIC50
1,CC1(C)N=C(C23CC(N(Cc4ccc(Cl)c(F)c4)S(=O)(=O)c4ccccc4)(C2)C3)N[C@H]1C(=O)N1CC2CC(F)(F)CC2C1 (mixture of isomers) [Example 82],7.21
2,CN(C[C@H]1CC1(F)F)C(=O)[C@@H]1NC(C23CC(N(Cc4ccc(Cl)c(F)c4)S(=O)(=O)c4ccccc4)(C2)C3)=NC1(C)C (mixture of isomers) [Example 83],7.21
3,C[C@H]1CCN(C(=O)[C@@H]2NC(C34CC(N(Cc5ccc(Cl)c(F)c5)S(=O)(=O)c5ccccc5)(C3)C4)=NC2(C)C)C1 (mixture of isomers) [Example 85],7.21
4,CC1(C)N=C(C23CC(N(Cc4ccc(Cl)c(Cl)c4)S(=O)(=O)c4ccccc4)(C2)C3)N[C@H]1C(=O)N1CCC(F)(F)CC1 (mixture of isomers) [Example 86],7.21
5,CC1(C)N=C(C23CC(N(Cc4ccc(Cl)c(F)c4)S(=O)(=O)c4ccccc4)(C2)C3)N[C@H]1C(=O)N1CC2(CCC2)C1 (mixture of isomers) [Example 87],7.20
6,CC1(C)N=C(C23CC(N(Cc4ccc(Cl)c(F)c4)S(=O)(=O)c4ccccc4)(C2)C3)N[C@H]1C(=O)N1CC2CCC(C1)C2(F)F (mixture of isomers) [Example 88],7.20
7,CC1(C)N=C(C23CC(N(Cc4ccc(Cl)c(F)c4)S(=O)(=O)c4ccccc4)(C2)C3)N[C@H]1C(=O)N1CCC(F)(F)C1 (mixture of isomers) [Example 91],7.19
8,CC1(C)N=C(C23CC(N(Cc4ccc(Cl)c(F)c4)S(=O)(=O)c4ccccc4)(C2)C3)N[C@H]1C(=O)N1CCC12CC(F)(F)C2 (mixture of isomers) [Example 94],7.19
9,CCCS(=O)(=O)N(Cc1ccc(Cl)c(Cl)c1)C12CC(C3=NC(C)(C)[C@H](C(=O)N4CCC(F)(F)CC4)N3)(C1)C2 (mixture of isomers) [Example 96],7.19
10,CC1(C)N=C(C23CC(N(Cc4ccc(Cl)c(F)c4)S(=O)(=O)c4ccccc4)(C2)C3)N[C@H]1C(=O)N1CCCC(F)(F)C1 (mixture of isomers) [Example 98],7.18
11,CC1(C)N=C(C23CC(N(Cc4ccc(Cl)c(Cl)c4)S(=O)(=O)CCC(F)F)(C2)C3)N[C@H]1C(=O)NCC1CC1(F)F (mixture of isomers) [Example 103],7.17
12,CC1(C)N=C(C23CC(N(Cc4ccc(Cl)c(F)c4)S(=O)(=O)c4ccccc4)(C2)C3)N[C@H]1C(=O)NC1CCC(F)(F)CC1 (mixture of isomers) [Example 104],7.16
13,CC(C)(C)CNC(=O)[C@@H]1NC(C23CC(N(Cc4ccc(Cl)c(Cl)c4)S(=O)(=O)CCC(F)F)(C2)C3)=NC1(C)C (mixture of isomers) [Example 106],7.15
14,CC1(C)N=C(C23CC(N(Cc4ccc(Cl)c(F)c4)S(=O)(=O)c4ccccc4)(C2)C3)N[C@H]1C(=O)N1CCC2(CCC2)C1 (mixture of isomers) [Example 109],7.15
15,CN(CC1CC(F)(F)C1)C(=O)[C@@H]1NC(C23CC(N(Cc4ccc(Cl)c(Cl)c4)S(=O)(=O)c4ccccc4)(C2)C3)=NC1(C)C (mixture of isomers) [Example 113],7.14
16,CC1(C)N=C(C23CC(N(Cc4ccc(Cl)c(Cl)c4)S(=O)(=O)c4ccccc4)(C2)C3)N[C@H]1C(=O)N1CCC2(C1)CC(F)(F)C2 (mixture of isomers) [Example 116],7.14
17,CN(CCC(F)(F)F)C(=O)[C@@H]1NC(C23CC(N(Cc4ccc(Cl)c(Cl)c4)S(=O)(=O)CCC(C)(F)F)(C2)C3)=NC1(C)C (mixture of isomers) [Example 117],7.14
18,CN(C(=O)[C@@H]1NC(C23CC(N(Cc4ccc(Cl)c(Cl)c4)S(=O)(=O)c4ccccc4)(C2)C3)=NC1(C)C)C1CC(C(F)F)C1 (mixture of isomers) [Example 120],7.13

# The remaining lines, values ahead:
row,pIC50,Compound
1,7.21,CC1(C)N=C(C23CC(N(Cc4ccc(Cl)c(F)c4)S(=O)(=O)c4ccccc4)(C2)C3)N[C@H]1C(=O)NC1CC(C(F)F)C1 (mixture of isomers) [Example 84]
2,7.20,CC1(C)N=C(C23CC(N(Cc4ccc(Cl)c(F)c4)S(=O)(=O)c4ccccc4)(C2)C3)N[C@H]1C(=O)NC1CC(C(F)F)C1 (mixture of isomers) [Example 89]
3,7.19,CC1(C)N=C(C23CC(N(Cc4ccc(Cl)cc4)S(=O)(=O)c4ccn(C5CC5)n4)(C2)C3)N[C@H]1C(=O)NCCC(F)(F)F (mixture of isomers) [Example 90]
4,7.19,CC1(C)N=C(C23CC(N(Cc4ccc(Cl)cc4)S(=O)(=O)CCCF)(C2)C3)N[C@H]1C(=O)NCCC(F)(F)F (mixture of isomers) [Example 92]
5,7.19,CC(F)(F)CCS(=O)(=O)N(Cc1ccc(Cl)cc1)C12CC(C3=NC(C)(C)[C@H](C(=O)NCCC(F)(F)F)N3)(C1)C2 (mixture of isomers) [Example 93]
6,7.19,CN(CC(C)(C)F)C(=O)[C@@H]1NC(C23CC(N(Cc4ccc(Cl)c(F)c4)S(=O)(=O)c4ccccc4)(C2)C3)=NC1(C)C (mixture of isomers) [Example 95]
7,7.17,CC1(C)N=C(C23CC(N(Cc4ccc(Cl)cc4)S(=O)(=O)c4ccccc4C#N)(C2)C3)N[C@H]1C(=O)NCCC(F)(F)F (mixture of isomers) [Example 99]
8,7.17,CCN(CCC(F)(F)F)C(=O)[C@@H]1NC(C23CC(N(Cc4ccc(Cl)c(F)c4)S(=O)(=O)c4ccccc4)(C2)C3)=NC1(C)C (mixture of isomers) [Example 100]
9,7.17,CC1(C)N=C(C23CC(N(Cc4ccc(Cl)cc4)S(=O)(=O)c4ccccc4)(C2)C3)N[C@H]1C(=O)NC1CC(C(F)F)C1 (mixture of isomers) [Example 101]
10,7.17,CC1(C)N=C(C23CC(N(Cc4ccc(Cl)cc4)S(=O)(=O)CCCCF)(C2)C3)N[C@H]1C(=O)NCCC(F)(F)F (mixture of isomers) [Example 102]
11,7.16,CC1(C)N=C(C23CC(N(Cc4ccc(Cl)cc4)S(=O)(=O)CC4CCC4)(C2)C3)N[C@H]1C(=O)NCCC(F)(F)F (mixture of isomers) [Example 105]
12,7.15,CC1(C)N=C(C23CC(N(Cc4ccc(Cl)cc4)S(=O)(=O)c4ccccc4Cl)(C2)C3)N[C@H]1C(=O)NCCC(F)(F)F (mixture of isomers) [Example 107]
13,7.15,CC1(C)N=C(C23CC(N(Cc4ccc(Cl)c(F)c4)S(=O)(=O)c4ccccc4)(C2)C3)N[C@H]1C(=O)NCCCC(F)(F)F (mixture of isomers) [Example 108]
14,7.14,CC1(C)N=C(C23CC(N(Cc4ccc(Cl)cc4)S(=O)(=O)c4cccnc4)(C2)C3)N[C@H]1C(=O)NCCC(F)(F)F (mixture of isomers) [Example 110]
15,7.14,CC(F)(F)CCS(=O)(=O)N(Cc1ccc(Cl)c(F)c1)C12CC(C3=NC(C)(C)[C@H](C(=O)NCCC(F)(F)F)N3)(C1)C2 (mixture of isomers) [Example 111]
16,7.14,CC1(C)N=C(C23CC(N(Cc4ccc(Cl)cc4)S(=O)(=O)c4ccccc4)(C2)C3)N[C@H]1C(=O)NCC(F)(F)C(F)(F)F (mixture of isomers) [Example 112]
17,7.14,CC1(C)N=C(C23CC(N(Cc4ccc(Cl)c(F)c4)S(=O)(=O)c4ccccc4)(C2)C3)N[C@H]1C(=O)NC1CC(F)(F)C1 (mixture of isomers) [Example 114]
18,7.14,CC1(C)N=C(C23CC(N(Cc4ccc(Cl)c(Cl)c4)S(=O)(=O)c4ccccc4)(C2)C3)N[C@H]1C(=O)NC1CC(F)(F)C1 (mixture of isomers) [Example 115]
19,7.13,CC1(C)N=C(C23CC(N(Cc4ccc(Cl)c(F)c4)S(=O)(=O)c4ccccc4)(C2)C3)N[C@H]1C(=O)NC1(CC(F)(F)F)CC1 (mixture of isomers) [Example 118]
20,7.13,CC1(C)N=C(C23CC(N(Cc4ccc(Cl)c(F)c4)S(=O)(=O)c4ccccc4)(C2)C3)N[C@H]1C(=O)N(CCC(F)(F)F)C1CC1 (mixture of isomers) [Example 119]
21,7.12,CC1(C)N=C(C23CC(N(Cc4ccc(Cl)cc4)S(=O)(=O)C4CCCC4)(C2)C3)N[C@H]1C(=O)NCCC(F)(F)F (mixture of isomers) [Example 121]
